Assay results as given in ChEMBL document CHEMBL1136846, “Investigation on the role of the tetrazole in the binding of thiotetrazolylacetanilides with HIV-1 wild type and K103N/Y181C double mutant reverse transcriptases” (Bioorg Med Chem Lett, 2009).

How the values were obtained:
[1] = target: Human immunodeficiency virus type 1 reverse transcriptase (Human immunodeficiency virus 1, UniProt Q72547); assay: Inhibition of wild type HIV1 reverse transcriptase by scintillation proximity assay
[2] = tested on: Human immunodeficiency virus 1; assay: Antiviral activity against HIV1 with transcriptase […] mutation infected in human C8166 cells assessed as inhibition of viral replication after 3 days by ELISA; assay type: functional, organism-based; conditions: Human immunodeficiency virus 1, C8166, 72 h
[3] = tested on: Human immunodeficiency virus 1; assay: Antiviral activity against HIV1 infected in human C8166 cells assessed as inhibition of viral replication after 3 days by ELISA; assay type: functional, organism-based; conditions: Human immunodeficiency virus 1, C8166, 72 h

Structure (SMILES)	IC50 [1] [nM]	EC50 [2] [nM]	EC50 [3] [nM]
Cc1ccc(-n2nnnc2SCC(=O)Nc2ccc(-c3ccc(OCC(=O)O)cc3)cc2Cl)c(Cl)c1	1.9	–	–
Cc1[nH]nc(OCC(=O)Nc2ccc(-c3ccc(CC(=O)O)cc3)cc2Cl)c1-c1ccc(C(C)(C)C)cc1Cl	2090	–	–
Cc1ccc(-n2cc(C)nc2SCC(=O)Nc2ccccc2Cl)c(Cl)c1	> 1000	–	–
Cc1[nH]nc(OCC(=O)Nc2ccc(C#CC(C)(C)C(=O)O)cc2Cl)c1-c1ccc(C(C)(C)C)cc1Cl	2400	73	3880
Cc1ccc(-c2ccccc2OCC(=O)Nc2ccc(-c3ccc(CC(=O)O)cc3)cc2Cl)c(Cl)c1	177	–	–
Cc1ccc(-c2c(SCC(=O)Nc3ccc(-c4ccc(CC(=O)O)cc4)cc3Cl)cnn2C)c(Cl)c1	1.9	–	–
Cc1ccc(-c2c(SCC(=O)Nc3ccc(-c4ccc(OCC(=O)O)cc4)cc3Cl)ccn2C)c(Cl)c1	> 1000	–	–
Cc1ccc(-n2c(C)cnc2SCC(=O)Nc2ccc(-c3ccc(CC(=O)O)cc3)cc2Cl)c(Cl)c1	9.5	–	–
Cc1ccc(-c2nnsc2SCC(=O)Nc2ccc(-c3ccc(CC(=O)O)cc3)cc2Cl)c(Cl)c1	2	–	–
Cc1ccc(-c2ncsc2SCC(=O)Nc2ccc(-c3ccc(CC(=O)O)cc3)cc2Cl)c(Cl)c1	200	–	–
C/C(=C/CCC(=O)Nc1ccc(-c2ccc(OCC(=O)O)cc2)cc1Cl)c1ccc(C)cc1Cl	15	–	–
C/C(=C\CCC(=O)Nc1ccc(-c2ccc(OCC(=O)O)cc2)cc1Cl)c1ccc(C)cc1Cl	272	–	–
Cc1ccc(-c2ncoc2SCC(=O)Nc2ccc(-c3ccc(CC(=O)O)cc3)cc2Cl)c(Cl)c1	365	–	–
CC(C)(C)c1ccc(-c2c[nH]nc2OCC(=O)Nc2ccc(-c3ccc(CC(=O)O)cc3)cc2Cl)c(Cl)c1	> 3300	444	4870
Cc1ccc(-n2nccc2SCC(=O)Nc2ccc(-c3ccc(CC(=O)O)cc3)cc2Cl)c(Cl)c1	7.9	–	–
Cc1ccc(-n2ncc(C)c2SCC(=O)Nc2ccc(-c3ccc(CC(=O)O)cc3)cc2Cl)c(Cl)c1	> 10000	–	–
Cc1ccc(-n2nccc2OCC(=O)Nc2ccc(-c3ccc(CC(=O)O)cc3)cc2Cl)c(Cl)c1	18	–	–
Cc1ccc(-c2ccccc2SCC(=O)Nc2ccc(-c3ccc(CC(=O)O)cc3)cc2Cl)c(Cl)c1	18	–	–
Cc1ccc(-n2nncc2SCC(=O)Nc2ccc(-c3ccc(CC(=O)O)cc3)cc2Cl)c(Cl)c1	2.4	–	–
Cc1[nH]nc(OCC(=O)Nc2ccc(C#CC(C)(C)CO)cc2Cl)c1-c1ccc(C(C)(C)C)cc1Cl	> 3330	177	> 5000
C/C(=C/CCC(=O)Nc1ccc(-c2ccc(CC(=O)O)cc2)cc1Cl)c1ccc(C)cc1Cl	2.4	–	–
